# Experiments:
# mutant p53 mRNA = experiment: Reverse transcription PCR of p53 mRNA in H596 cells; assay type: cell-based, Human; details: H596, 15 μM PEITC; 2, 4, and 6 h
# Method: Total RNA was extracted from the cells using the RNeasy kit (Qiagen). Reverse transcription PCR was performed using SuperScript One-Step RT-PCR kit (Invitrogen) according to the manufacturer's instructions. Primers for p53 were 5′-[…]-3′ (sense) and 3′-[…]-5′ (antisense). Primers for β-actin were 5′-[…]-3′ (sense) and 3′-[…]-5′ (antisense). β-Actin was used as an internal standard for RNA normalization.
# H522 cells = experiment: Apoptosis and cell cycle progression, H522; assay type: cell-based; details: H522, 4 uM PEITC
# Text: (§1) The negative effects of PEITC on cell proliferation might affect the apoptotic potential of the cells and the cell cycle progression.
# [1] = biological target: T1, wild-type p53 in A549, HCT116, MCF-7 and MCF-10A cells (Homo sapiens, UniProt P04637); experiment: Immunoblot of wild-type p53 in cells with wild-type p53; assay type: cell-based
# T1 construct: host or cells: A549, HCT116, MCF-7, MCF-10A
# Text: Human H596, A549, HCT116, MDA-MB-231, MDA-MB-468, MCF-7, DU145, MCF-10A, SW480, and SCC-4 cells were obtained from ATCC (Manassas, Va.). H1299-175H cells were kindly provided by Dr. Maria Laura Avantaggiati (Georgetown University). Cells were maintained in DMEM or RPMI-1640 medium supplemented with 10% FBS (Hyclone). DMSO, PEITC, BITC, SFN, AITC, NMPEA, and monochlorobimane were purchased from Sigma-Aldrich (St. Louis, Mo.). 2,2-Diphenylethyl ITC, 4-phenoxybenzyl ITC, 4-methoxybenzyl ITC, 4-chlorobenzyl ITC, Dα-methylbenzyl ITC, trityl ITC, and 3-phenylpropyl ITC were purchased from Trans World Chemicals (Rockville, Md.). Erucin and 4-phenylbutyl ITC were from LKT Laboratories, Inc. (St. Paul, Minn.). […] All the compounds are with purities ≧95% as determined by gas-liquid chromatography or HPLC. […]
# Whole cell lysates were prepared in lysis buffer (20 mM HEPES, pH 7.4, 2 mM EGTA, 50 mM β-glycerol phosphate, 1% Triton X-100, 10% glycerol, 1 mM DTT, 1 mM PMSF, […], 1 mM Na3-VO4, and 5 mM NaF). […] Proteins were detected using enhanced chemiluminescence (ECL) reagents (GE Healthcare). […]
# DU145 cells = experiment: Apoptosis and cell cycle progression, DU145; assay type: cell-based, Human; details: DU145, 4 uM PEITC
# Text: as §1
# [2] = biological target: T2, mutant p53 protein in H596 (G245C) non-small-cell lung cancer cells (Homo sapiens, UniProt P04637, G245C); experiment: Immunoblot of mutant p53 protein in H596 cells; assay type: cell-based
# T2 construct: host or cells: H596
# Text: (§2) Human H596, A549, HCT116, MDA-MB-231, MDA-MB-468, MCF-7, DU145, MCF-10A, SW480, and SCC-4 cells were obtained from ATCC (Manassas, Va.). H1299-175H cells were kindly provided by Dr. Maria Laura Avantaggiati (Georgetown University). Cells were maintained in DMEM or RPMI-1640 medium supplemented with 10% FBS (Hyclone). […] 2,2-Diphenylethyl ITC, 4-phenoxybenzyl ITC, 4-methoxybenzyl ITC, 4-chlorobenzyl ITC, Dα-methylbenzyl ITC, trityl ITC, and 3-phenylpropyl ITC were purchased from Trans World Chemicals (Rockville, Md.). Erucin and 4-phenylbutyl ITC were from LKT Laboratories, Inc. (St. Paul, Minn.). […] The p53 DO-1 and β-actin antibodies were purchased from Santa Cruz Biotechnology (Santa Cruz, Calif.), horseradish peroxidase-labeled goat antimouse secondary antibodies were purchased from GE-Healthcare (Pittsburgh, Pa.), and Bio-Rad Protein Assay was from Bio-Rad (Hercules, Calif.).
# (§3) Whole cell lysates were prepared in lysis buffer (20 mM HEPES, pH 7.4, 2 mM EGTA, 50 mM β-glycerol phosphate, 1% Triton X-100, 10% glycerol, 1 mM DTT, 1 mM PMSF, […], 1 mM Na3-VO4, and 5 mM NaF). For immunoblot analysis, equal amounts of protein were resolved on 4-12% NuPAGE BisTris gels (Invitrogen) and transferred to PVDF membranes (Millipore). The membranes were blocked with 5% milk in TBST and were then probed with p53 (DO-1) or β-actin antibody. Proteins were detected using enhanced chemiluminescence (ECL) reagents (GE Healthcare).
# A549 (WT p53) cell line = experiment: Cell proliferation, A549; assay type: cell-based, Human
# Method: (§4) Next, the effect of PEITC exposure on tumor growth of the tumor cell lines expressing mutant or the WT p53 protein was examined. […] This hypersensitivity to PEITC being mediated through mutant p53 was next examined. The effect of PEITC on mda-mb-231 cells depleted of mutant p53 by >90% was compared to non-specific (NS) siRNA transfected cells as a control (FIG. 9B). […] Further the effect of PEITC treatment on the level of mutant p53 protein at lower doses was analyzed by western blot analysis (FIG. 9D).
# mda-mb-231 (R280K) cells = experiment: Cell proliferation, mda-mb-231; assay type: cell-based, Human
# Method: as §4
# [3] = biological target: T3, mutant p53 in MDA-MB-231 breast cancer cells (Homo sapiens, UniProt P04637, R280K); experiment: Immunoblot of mutant p53 in MDA-MB-231 cells treated with ITCs; assay type: cell-based; details: MDA-MB-231, 10 μM ITCs, 24 h, compared with DMSO control
# T3 construct: host or cells: MDA-MB-231
# Text: as §2, §3
smiles,measurement,setting,value
"S=C=NCCc1ccccc1 [PEITC, phenethyl isothiocyanate]",mutant p53 mRNA levels,mutant p53 mRNA,remained unchanged
same,apoptosis compared to DMSO treated cells,H522 cells,two fold increase
same,cell cycle progression,H522 cells,S-phase arrest
same,wild-type p53 expression,"[1]; 15 or 20 μM PEITC for 2, 4, 8, and 24 h",did not decrease
same,level of wild type (WT) p53 protein,"[1]; PEITC exposure, summary of previous experiments",no significant decrease
same,apoptosis compared to DMSO treated cells,DU145 cells,two fold increase
same,cell cycle progression,DU145 cells,S-phase arrest
same,mutant p53 protein level,"[2]; H596 (G245C), 15 μM PEITC, immunoblot",rapid depletion
same,earliest time at which depletion of mutant p53 occurred,"[2]; H596, 15 μM PEITC",2 h
same,time at which depletion of mutant p53 peaked,"[2]; H596, 15 μM PEITC, sustained during 24 h treatment",4 h
same,depletion of mutant p53 at equimolar concentrations,"[2]; H596, 20 μM ITCs, 24 h, compared with DMSO control",approximately the same extent
same,reduction in cell proliferation,A549 (WT p53) cell line; 12 μM PEITC,25%
same,reduction in cell proliferation,A549 (WT p53) cell line; 14 μM PEITC,45%
same,inhibition at 1 µM,"mda-mb-231 (R280K) cells; Homo sapiens, mda-mb-231 (R280K), 1 μM PEITC",55%
same,sensitivity to cell growth inhibition,mda-mb-231 (R280K) cells; control (NS) siRNA transfected mda-mb-231 cells,highly sensitive
same,sensitivity to cell growth inhibition,mda-mb-231 (R280K) cells; mda-mb-231 cells depleted of mutant p53 by >90% (siRNA),significant reduction in the sensitivity
same,depletion of mutant p53 at equimolar concentrations,[3],approximately the same extent

# From patent US20130158111A1, “Compositions and Methods for Depleting Mutant p53” (Georgetown University, priority 2011, published 2013)
